One experiment has as its system COLO 205 cells. The experiment in a line: DNA fragmentation (DNA ladder) by electrophoresis of genomic DNA. Type of experiment: cell-based, human. Here is the method:
Genomic DNAs extracted from TB-treated COLO 205 were examined by gel electrophoresis. […] In FIG. 9, the part of (A) refers to potentiation of ND-induced apoptosis by TB. […] DNA fragmentation was examined at 24 h after drug treatment. In the lanes 2 and 8, cells received mock treatment as controls. The symbols of “M” (in lanes 1 and 7), refer to “DNA size marker.” (B) average tumor volume of DMSO-treated vs. drug-treated nude mice (n=5). (C) tumor weight, (D) animal body weight, and (E) tumor/body weight ratio were measured at the end of experiment. Five samples were analyzed in each group, and values represent the mean±S.E. Comparisons were subjected to ANOVA followed by Fisher's least significant difference test. Significance was accepted at p<0.05. *TB-, ND-, and TB+ND-treated group different from DMSO-treated group. TB+ND-treated group different from TB- or ND-treated group.

Experiment [1] deals with COLO 205 tumor xenografts. Briefly: Treatment of COLO 205-derived xenografts in vivo. Also on record: species or system nude mouse. To be noted: TB 50 mg/kg, ND 5 mg/kg, intraperitoneal, 3 times per week for 6 weeks. As to the method: Genomic DNAs extracted from TB-treated COLO 205 were examined by gel electrophoresis. […] DNA fragmentation was examined at 24 h after drug treatment. In the lanes 2 and 8, cells received mock treatment as controls. […] Comparisons were subjected to ANOVA followed by Fisher's least significant difference test. […] Since, retardation of the cell cycle and/or activation of the cellular apoptotic response are two major mechanisms preventing tumor growth, we examined the TB effect on the cell cycle and apoptosis occurrence of the solid tumor derived from the implanted COLO 205. The COLO-205 cells (5×10^6) in 0.1 ml RPMI 1640 were injected subcutaneously between the scapulae of each nude mouse (purchased from National Science Council animal center, Taipei). […]

For another experiment, the system named is malignant cells. To be noted: through abnormal microtubule polymerization; previous study; cited from earlier work.
The test system of experiment [2] is COLO 205 tumor xenografts. To be noted: previous research; cited from earlier work.
The subject of experiment [3] is hepatoma and colon cancer cells. As to conditions: previous studies of the inventors; cited from earlier work.

For `COC(=O)Nc1nc2ccc(C(=O)c3cccs3)cc2[nH]1` [ND, nocodazole], in the experiment with COLO 205 cells (ND alone, 24 h after drug treatment), the “ND concentration at which DNA ladder patterns characteristic of apoptosis are displayed” value is reported as at least 50 nM. In the experiment with COLO 205 cells (in the presence of 10 μM TB, 24 h), the “ND concentration inducing the DNA ladder pattern” value is listed as 1 nM. Also, the “tumor volume vs. vehicle (DMSO plus peanut oil)” value in experiment [1] was “reduction in tumor volume”.
On to `COC1=CC(=O)C[C@@H](C)[C@]12Oc1c(Cl)c(OC)cc(OC)c1C2=O` [griseofulvin], for which the “apoptosis and cell cycle arrest” value with malignant cells is “induced apoptosis and cell cycle arrest at the G2/M phase”. Further, in experiment [2], the “effect on anti-cancer activities of nocodazole in vivo” value was “potentiates the anti-cancer activities of nocodazole”.
As for `CC(=O)N1CCN(c2ccc(OCC3COC(Cn4ccnc4)(c4ccc(Cl)cc4Cl)O3)cc2)CC1` (stereo not drawn) [ketoconazole], the “cell cycle arrest and apoptosis” value in experiment [3] is “induced cell cycle arrest at the G0/G1 phase of the cell cycle and the occurrence of apoptosis”.
